Experimental findings from US20250127774A1, “COMPOUNDS FOR LABELLING NUCLEIC ACID AND USES THEREOF” (THE ROYAL INSTITUTION FOR THE ADVANCEMENT OF …, priority 2022, published 2025) are described below.

The nature of series [1]: Kinetic measurements with the VdU nucleoside (non-templated IEDDA reaction). The conditions noted are these: 50 mM aq. NaOAc buffer pH 5.2 (27% DMSO). As to the method: A) Fluorescence increase versus time upon mixing PINK with VdU. […] B) Normalized increase of fluorescence. C) Plot of the observed rates k′ versus PINK concentrations. The slope yields the rate constant k.
PINK (4) undergoes a highly fluorogenic and regioselective IEDDA reaction with VdU (5) to give “PINK-VdU-ox” (6) as a single isomer in a 76% isolated yield after 7d at 60° C. (Scheme 1). The slow rate of this non-templated reaction (Kapp=0.01 M^−1 s^−1, FIG. 5) is due to the combination of an unstrained terminal alkene and unactivated tetrazine.^[49] Over the course of the reaction, a ˜100-fold increase in fluorescence was observed (FIG. 3, c). […]
Kinetic Measurements with the VdU Nucleoside. Second order reaction rates between PINK and VdU were determined under pseudo first order conditions with a large excess of the dienophile over the tetrazine. […] Measurements were performed on a SpectraMax M5 plate reader (Molecular Devices, Sunnyvale, CA, USA) in 384 well plates (Greiner bio-one, cat-#871906; 50 μL per well; covered with 20 μL spectroscopic grade silicon oil to avoid evaporation). […] Samples were measured over 18 h in intervals of 10 min. […] Reactions rates were calculated using pseudo first order approximations fitting the measurements to mono exponential equations. The reported reaction rate is an arithmetic mean determined from three independent experiments.

Series [2] relates to HeLa and U2OS cells. Kind of series: Resazurin assay, toxicity evaluation of PINK. It counts as cell-based. The note with it: low micromolar concentrations of PINK (0-12.5 μM), 24 and 72 h. Here is the method:
Cellular respiratory activity was evaluated by measuring the fluorescence emission after addition of resazurin ([…]).
Resazurin Assay. HeLa or U2OS cells were seeded in 96-well plates at a density of 7,500 cells per well and incubated overnight. The supernatant was removed and 100 μL fresh media containing PINK (0-12.5 μM; 0.1% DMSO) was added. Cells were grown for 24 or 72 h, at which point 10 μL resazurin (880 μM in PBS; final concentration: 80 μM) was added. After incubation for 3 h, the fluorescence emission at 590 nm (excitation 560 nm; cut-off: 575 nm) was measured using a SpectraMax M5 plate reader (Molecular Devices, Sunnyvale, CA, USA). LC50 values were determined from two independent replicates.
Background: Resazurin is reduced to fluorescent resorufin, in cell work by metabolically active cells.

As for `Cc1nnc(-c2ccc3cc4ccc(N(C)C)cc4nc3c2)nn1` [PINK], the “rate of non-templated reaction (Kapp)” value in series [1] (100 μM PINK, 1-5 mM VdU) was found to be 0.01 M⁻¹ s⁻¹. For the same molecule, the “stability of PINK under control conditions (0 mM VdU)” value in series [1] (18 h) is given as “full stability”. Further, the “toxicity to cells (cellular respiratory activity, resazurin)” value in series [2] was “not toxic to cells even at longer incubation times”.
